For 20 molecules, IC50 results are on record in patent US20260137703A1, “2-AMINO-PYRIDO[2,3-D]PYRIMIDIN-7(8H)-ONE AND 7-AMINO-1-PYRIMIDO[4,5-D]PYRIMIDIN-2(1 H)-ONE DERIVATIVES AS EGFR INHIBITORS FOR THE TREATMENT OF CANCER” (Cancer Research Technology Limited, priority 2022, published 2026).

The target in experiment [1] is CtermHisTag-mEGFR Wild type (Homo sapiens, UniProt P00533). Nature of the experiment: biochemical.
In experiment [2] the target is T1, Phospho-EGFR (Tyr1068) in A431 cells (Homo sapiens, UniProt P00533).
T1 construct: endogenous in cells; host or cells: A431
The experiment in a line: HTRF pEGFR/total EGFR in A431 cells with EGF stimulation. In kind it is cell-based. The note with it: ratio pEGFR/total EGFR, compound 2.5 hours then 100 ng/ml EGF 30 mins. In a few lines: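 A431 cells were plated at 20,000 per well, allowed 24 h to adhere, then given compound for 2.5 h (0.1% DMSO final). They were then stimulated with 100 ng/ml EGF for 30 min and lysed. HTRF measured Tyr1068-phospho and total EGFR at 665/620 nm, with pEGFR/total EGFR expressed as % of the 0 μM control.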

Experiment [3] has as its target T2, Phospho-EGFR (Tyr1068) in H1975 cells (Homo sapiens, UniProt P00533, L858R/T790M).
T2 construct: host or cells: H1975
Nature of the experiment: HTRF pEGFR/total EGFR in H1975 cells. In kind it is cell-based. As to conditions: ratio pEGFR/total EGFR, compound 3 hours. In a few lines:
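H1975 cells (EGFR L858R/T790M) treated 3 h with compound in 0.1% DMSO, in duplicate, 24 h after plating. Lysates assayed by HTRF for pEGFR (Tyr1068) and total EGFR at 665/620 nm; values are pEGFR/total EGFR ratio as percent of 0 μM control.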

For experiment [4], the target named is T3, Phospho-EGFR (Tyr1068) in H1975 C797S cells (CRISPR-edited EGFR C797S) (Homo sapiens, UniProt P00533, C797S/L858R/T790M).
T3 construct: host or cells: H1975 C797S (CRISPR-edited)
Nature of the experiment: HTRF pEGFR/total EGFR in H1975 C797S cells. The note with it: ratio pEGFR/total EGFR, compound 3 hours. In kind it is cell-based. The gist of the method:
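Adhered H1975 C797S cells got compound for 3 h in duplicate at 0.1% DMSO final, then were lysed 30 min at room temperature. HTRF kits quantified phospho-EGFR (Tyr1068) and total EGFR (665/620 nm); results are pEGFR/total EGFR ratio as percent of 0 μM control.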

T1 sequence (P00533 25-1210): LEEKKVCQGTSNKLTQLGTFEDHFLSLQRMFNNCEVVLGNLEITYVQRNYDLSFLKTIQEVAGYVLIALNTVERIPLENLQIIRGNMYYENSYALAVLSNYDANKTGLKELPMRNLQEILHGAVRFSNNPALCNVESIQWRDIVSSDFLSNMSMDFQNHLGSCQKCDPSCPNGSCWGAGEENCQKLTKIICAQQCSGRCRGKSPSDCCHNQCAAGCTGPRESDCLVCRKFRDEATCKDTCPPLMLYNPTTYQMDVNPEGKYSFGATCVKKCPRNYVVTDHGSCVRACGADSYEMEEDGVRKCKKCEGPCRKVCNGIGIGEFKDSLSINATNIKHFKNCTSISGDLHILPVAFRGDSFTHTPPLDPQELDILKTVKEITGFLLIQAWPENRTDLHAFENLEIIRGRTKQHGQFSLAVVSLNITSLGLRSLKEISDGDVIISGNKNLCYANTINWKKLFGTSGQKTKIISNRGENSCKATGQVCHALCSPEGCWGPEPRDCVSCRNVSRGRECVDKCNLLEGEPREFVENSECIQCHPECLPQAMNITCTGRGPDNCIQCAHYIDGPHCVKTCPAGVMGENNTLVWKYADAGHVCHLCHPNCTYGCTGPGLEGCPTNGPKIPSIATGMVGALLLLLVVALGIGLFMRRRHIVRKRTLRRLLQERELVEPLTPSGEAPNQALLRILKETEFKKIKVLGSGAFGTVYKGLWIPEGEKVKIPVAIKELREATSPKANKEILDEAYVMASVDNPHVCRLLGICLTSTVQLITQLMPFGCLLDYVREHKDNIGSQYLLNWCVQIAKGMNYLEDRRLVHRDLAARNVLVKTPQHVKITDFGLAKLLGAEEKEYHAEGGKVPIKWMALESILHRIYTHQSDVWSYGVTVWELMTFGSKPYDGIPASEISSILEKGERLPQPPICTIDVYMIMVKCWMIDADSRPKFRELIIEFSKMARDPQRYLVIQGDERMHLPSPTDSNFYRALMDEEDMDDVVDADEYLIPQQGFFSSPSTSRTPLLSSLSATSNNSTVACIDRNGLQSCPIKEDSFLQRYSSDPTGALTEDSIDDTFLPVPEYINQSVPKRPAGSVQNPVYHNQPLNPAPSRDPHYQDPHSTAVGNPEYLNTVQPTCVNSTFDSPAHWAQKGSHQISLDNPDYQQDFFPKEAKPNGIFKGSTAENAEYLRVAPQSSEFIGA
T3 sequence (P00533 25-1210 T790M/C797S/L858R): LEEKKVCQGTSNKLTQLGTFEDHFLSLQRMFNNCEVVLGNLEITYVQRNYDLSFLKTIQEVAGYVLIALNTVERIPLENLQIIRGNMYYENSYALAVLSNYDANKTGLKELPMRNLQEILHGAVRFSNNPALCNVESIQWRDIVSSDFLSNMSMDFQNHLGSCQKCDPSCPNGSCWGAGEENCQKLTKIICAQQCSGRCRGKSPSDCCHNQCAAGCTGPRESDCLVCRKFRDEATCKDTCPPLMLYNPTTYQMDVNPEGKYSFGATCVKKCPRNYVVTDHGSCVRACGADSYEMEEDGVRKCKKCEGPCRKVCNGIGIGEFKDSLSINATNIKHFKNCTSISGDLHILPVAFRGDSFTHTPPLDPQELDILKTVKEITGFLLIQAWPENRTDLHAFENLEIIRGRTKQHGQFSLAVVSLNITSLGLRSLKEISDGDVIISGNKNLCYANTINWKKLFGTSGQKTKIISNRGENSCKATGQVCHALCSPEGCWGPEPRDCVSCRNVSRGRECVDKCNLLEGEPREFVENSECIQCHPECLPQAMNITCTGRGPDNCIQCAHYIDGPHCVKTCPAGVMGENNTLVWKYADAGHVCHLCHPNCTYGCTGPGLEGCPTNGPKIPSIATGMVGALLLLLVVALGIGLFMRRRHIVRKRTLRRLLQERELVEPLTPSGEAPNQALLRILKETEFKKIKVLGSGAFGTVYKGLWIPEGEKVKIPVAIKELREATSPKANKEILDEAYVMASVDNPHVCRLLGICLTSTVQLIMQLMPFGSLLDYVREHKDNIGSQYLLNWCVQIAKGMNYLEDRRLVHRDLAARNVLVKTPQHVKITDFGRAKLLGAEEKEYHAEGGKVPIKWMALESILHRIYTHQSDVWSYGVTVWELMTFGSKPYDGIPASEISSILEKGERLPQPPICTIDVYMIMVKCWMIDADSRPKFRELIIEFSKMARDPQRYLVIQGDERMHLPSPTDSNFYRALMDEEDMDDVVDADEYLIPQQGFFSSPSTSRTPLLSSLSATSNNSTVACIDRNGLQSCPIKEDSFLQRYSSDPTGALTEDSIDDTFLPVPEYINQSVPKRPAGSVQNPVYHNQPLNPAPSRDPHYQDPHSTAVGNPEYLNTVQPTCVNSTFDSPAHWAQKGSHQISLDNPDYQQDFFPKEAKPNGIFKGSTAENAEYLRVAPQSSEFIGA
Sequence of CtermHisTag-mEGFR Wild type (P00533 whole entry): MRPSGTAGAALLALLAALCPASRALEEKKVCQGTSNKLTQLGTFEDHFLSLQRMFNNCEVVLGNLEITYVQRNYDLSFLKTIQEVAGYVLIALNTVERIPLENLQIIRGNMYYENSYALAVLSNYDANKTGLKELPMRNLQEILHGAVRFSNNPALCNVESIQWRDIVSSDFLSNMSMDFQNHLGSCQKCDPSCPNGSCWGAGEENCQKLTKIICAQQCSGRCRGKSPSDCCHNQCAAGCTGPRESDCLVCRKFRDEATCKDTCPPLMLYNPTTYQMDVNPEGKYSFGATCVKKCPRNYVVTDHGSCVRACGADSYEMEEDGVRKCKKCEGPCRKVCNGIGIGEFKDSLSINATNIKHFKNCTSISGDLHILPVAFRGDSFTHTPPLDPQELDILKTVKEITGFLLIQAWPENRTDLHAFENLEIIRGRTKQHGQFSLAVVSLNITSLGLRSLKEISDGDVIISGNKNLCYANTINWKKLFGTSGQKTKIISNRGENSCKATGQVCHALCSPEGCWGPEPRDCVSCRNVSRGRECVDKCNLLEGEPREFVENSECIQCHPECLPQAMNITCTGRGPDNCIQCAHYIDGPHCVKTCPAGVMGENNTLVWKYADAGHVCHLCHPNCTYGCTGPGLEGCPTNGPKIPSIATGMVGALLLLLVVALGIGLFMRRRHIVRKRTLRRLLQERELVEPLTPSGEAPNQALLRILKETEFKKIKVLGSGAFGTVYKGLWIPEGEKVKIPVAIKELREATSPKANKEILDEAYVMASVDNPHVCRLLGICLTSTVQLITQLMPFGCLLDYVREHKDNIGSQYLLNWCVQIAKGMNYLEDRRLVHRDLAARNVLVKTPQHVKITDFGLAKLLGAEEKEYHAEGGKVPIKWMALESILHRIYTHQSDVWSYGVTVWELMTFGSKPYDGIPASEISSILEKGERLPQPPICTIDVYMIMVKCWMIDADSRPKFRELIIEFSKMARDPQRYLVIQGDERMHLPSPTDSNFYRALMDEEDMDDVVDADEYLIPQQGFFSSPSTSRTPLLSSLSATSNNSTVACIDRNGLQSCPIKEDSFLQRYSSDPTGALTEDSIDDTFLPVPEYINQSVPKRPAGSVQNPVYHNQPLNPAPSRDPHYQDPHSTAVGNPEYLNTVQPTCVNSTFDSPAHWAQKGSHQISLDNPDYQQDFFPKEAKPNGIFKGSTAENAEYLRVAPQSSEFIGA
T2 sequence (P00533 25-1210 T790M/L858R): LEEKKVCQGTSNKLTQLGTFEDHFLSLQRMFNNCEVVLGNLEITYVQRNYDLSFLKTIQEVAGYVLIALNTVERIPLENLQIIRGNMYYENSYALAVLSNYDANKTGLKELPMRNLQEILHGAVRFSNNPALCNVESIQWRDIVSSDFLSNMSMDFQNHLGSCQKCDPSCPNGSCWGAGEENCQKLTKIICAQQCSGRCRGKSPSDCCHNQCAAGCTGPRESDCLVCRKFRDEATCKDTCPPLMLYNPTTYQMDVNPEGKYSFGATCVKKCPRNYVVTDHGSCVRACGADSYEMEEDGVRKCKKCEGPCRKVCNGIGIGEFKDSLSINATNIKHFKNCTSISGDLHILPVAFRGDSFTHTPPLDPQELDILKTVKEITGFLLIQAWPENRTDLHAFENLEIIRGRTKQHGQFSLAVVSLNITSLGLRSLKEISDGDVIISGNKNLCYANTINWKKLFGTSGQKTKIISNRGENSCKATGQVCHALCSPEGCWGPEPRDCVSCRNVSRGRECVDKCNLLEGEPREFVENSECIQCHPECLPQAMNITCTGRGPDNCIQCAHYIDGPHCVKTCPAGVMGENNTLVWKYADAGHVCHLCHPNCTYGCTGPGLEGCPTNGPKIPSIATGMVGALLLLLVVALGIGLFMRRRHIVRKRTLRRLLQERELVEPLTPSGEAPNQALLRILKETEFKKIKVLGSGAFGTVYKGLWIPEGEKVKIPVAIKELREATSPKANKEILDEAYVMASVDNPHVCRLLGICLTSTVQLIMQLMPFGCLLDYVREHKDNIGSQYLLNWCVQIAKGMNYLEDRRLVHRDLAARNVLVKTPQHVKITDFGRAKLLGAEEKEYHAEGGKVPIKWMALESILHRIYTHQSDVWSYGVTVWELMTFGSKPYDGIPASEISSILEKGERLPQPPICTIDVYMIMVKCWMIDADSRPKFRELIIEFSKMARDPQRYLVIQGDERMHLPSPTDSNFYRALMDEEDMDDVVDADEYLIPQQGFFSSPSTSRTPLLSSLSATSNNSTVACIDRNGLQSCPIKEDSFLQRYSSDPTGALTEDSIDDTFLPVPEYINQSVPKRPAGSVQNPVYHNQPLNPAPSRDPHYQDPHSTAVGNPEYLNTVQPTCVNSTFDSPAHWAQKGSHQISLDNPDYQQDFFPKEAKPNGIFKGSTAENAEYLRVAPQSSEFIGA

For the molecule `C#Cc1c(-c2cc(OC)ccc2Cl)c(=O)n(C)c2nc(Nc3ccc(N(C)CCN(C)C)cc3)ncc12` [Example 136, 6-(2-chloro-5-methoxyphenyl)-2-[(4-{[2-(dimethylamino)ethyl](methyl)amino}phenyl)amino]-5-ethynyl-8-methylpyrido[2,3-d]pyrimidin-7-one], the IC50 in experiment [1] is under 1 µM; in experiment [2] it was 1 to 3 µM; in experiment [3], under 0.5 µM; in experiment [4] it was 0.5 to 1 µM.
Taken in the same sequence, the figures for `C#Cc1c(C)c(=O)n([C@H]2CC[C@H](NC(C)=O)CC2)c2nc(Nc3ccc(N4CCN(C)CC4)cc3)ncc12` [Example 102, N-[(1r,4r)-4-(5-Ethynyl-6-methyl-2-{[4-(4-methylpiperazin-1-yl)phenyl]amino}-7-oxopyrido[2,3-d]pyrimidin-8-yl)cyclohexyl]acetamide] were 1 to 10 µM, 1 to 3 µM, 1 to 3 µM and 1 to 3 µM.
Taken in the same sequence, the figures for `C#Cc1cc(=O)n(-c2ccccc2)c2cc(Nc3ccccc3OC)ncc12` [Example 3, 4-Ethynyl-7-[(2-methoxyphenyl)amino]-1-phenyl-1,6-naphthyridin-2-one] were over 10 µM, over 3 µM, over 3 µM and over 3 µM.
Taken in the same sequence, the figures for `C=Cc1c(-c2ccccc2Cl)c(=O)n(C)c2nc(Nc3ccc(OCCN(C)C)cc3)ncc12` [Example 172, 6-(2-chlorophenyl)-2-({4-[2-(dimethylamino)ethoxy]phenyl}amino)-5-ethenyl-8-methylpyrido[2,3-d]pyrimidin-7-one] were over 10 µM, over 3 µM, over 3 µM and over 3 µM.
On to `C#Cc1cc(=O)n(-c2ccccc2)c2nc(Nc3ccc(N4CCN(CCO)CC4)cc3)ncc12` [Example 17, 5-ethynyl-2-({4-[4-(2-hydroxyethyl)piperazin-1-yl]phenyl}amino)-8-phenylpyrido[2,3-d]pyrimidin-7-one], for which the IC50 in experiment [1] is under 1 µM; in experiment [2], 1 to 3 µM; in experiment [3], under 0.5 µM; in experiment [4], under 0.5 µM.
On to `C#Cc1c(C)c(=O)n(Cc2ncco2)c2nc(Nc3ccc(N4CCN(C)CC4)cc3)ncc12` [Example 114, 5-ethynyl-6-methyl-2-{[4-(4-methylpiperazin-1-yl)phenyl]amino}-8-(1,3-oxazol-2-ylmethyl)pyrido[2,3-d]pyrimidin-7-one], for which the IC50 in experiment [1] was under 1 µM; in experiment [2], 1 to 3 µM; in experiment [3], 1 to 3 µM; in experiment [4], 1 to 3 µM.
With `C#Cc1cc(=O)n([C@H]2CC[C@@H](NC(=O)CC(=O)N(C)C)CC2)c2nc(Nc3ccc(N4CCN(C)CC4)cc3)ncc12` [Example 95, N,N-Dimethyl-N′-[(1s,4s)-4-(5-ethynyl-2-{[4-(4-methylpiperazin-1-yl)phenyl]amino}-7-oxopyrido[2,3-d]pyrimidin-8-yl)cyclohexyl]propanediamide], the IC50 is 1 to 10 µM in experiment [1], over 3 µM in experiment [2], under 0.5 µM in experiment [3] and under 0.5 µM in experiment [4].
Consider `C#Cc1cc(=O)n([C@H]2CC[C@@H](NC(=O)CCC(=O)NC)CC2)c2nc(Nc3ccc(N4CCN(C)CC4)cc3)ncc12` [Example 98, N-Methyl-N′-[(1s,4s)-4-(5-ethynyl-2-{[4-(4-methylpiperazin-1-yl)phenyl]amino}-7-oxopyrido[2,3-d]pyrimidin-8-yl)cyclohexyl]succinamide], for which the IC50 in experiment [1] was 1 to 10 µM; in experiment [2], over 3 µM; in experiment [3], over 3 µM; in experiment [4] it was over 3 µM.
As for `C#Cc1cc(=O)n(C)c2nc(Nc3ccc(OCCN(C)C)cc3)ncc12` [Example 46, 2-({4-[2-(Dimethylamino)ethoxy]phenyl}amino)-5-ethynyl-8-methylpyrido[2,3-d]pyrimidin-7-one], the IC50 in experiment [1] is 1 to 10 µM; in experiment [2] it was over 3 µM; in experiment [3], under 0.5 µM; in experiment [4], under 0.5 µM.
As for `C#Cc1cc(=O)n(-c2ccccc2)c2nc(Nc3ccc(N4CCN(C)CC4)c(CO)c3)ncc12` [Example 31, 5-Ethynyl-2-{[3-(hydroxymethyl)-4-(4-methylpiperazin-1-yl)phenyl]amino}-8-phenylpyrido[2,3-d]pyrimidin-7-one], the IC50 in experiment [1] is under 1 µM; in experiment [2], over 3 µM; in experiment [3], under 0.5 µM; in experiment [4] it was 0.5 to 1 µM.
For `C#Cc1cc(=O)n([C@H]2CC[C@@H](NC(=O)CCC(=O)OC)CC2)c2nc(Nc3ccc(N4CCN(C)CC4)cc3)ncc12` [Example 92, Methyl 4-(((1s,4s)-4-(5-ethynyl-2-((4-(4-methylpiperazin-1-yl)phenyl)amino)-7-oxopyrido[2,3-d]pyrimidin-8(7H)-yl)cyclohexyl)amino)-4-oxobutanoate], the IC50 was 1 to 10 µM in experiment [1], over 3 µM in experiment [2], over 3 µM in experiment [3] and over 3 µM in experiment [4].
On to `C#Cc1cc(=O)n(-c2ccccc2)c2nc(Nc3ccc4c(c3)CCNCC4)ncc12` [Example 26, 5-ethynyl-8-phenyl-2-(2,3,4,5-tetrahydro-1H-3-benzazepin-7-ylamino)pyrido [2,3-d]pyrimidin-7-one], for which the IC50 in experiment [1] is under 1 µM; in experiment [2] it was 1 to 3 µM; in experiment [3] it was under 0.5 µM; in experiment [4], under 0.5 µM.
On to `C#Cc1c(-c2cc(F)ccc2Cl)c(=O)n(C)c2nc(Nc3ccc(N(C)CCN(C)C)cc3)ncc12` [Example 137, 6-(2-chloro-5-fluorophenyl)-2-[(4-{[2-(dimethylamino)ethyl](methyl)amino}phenyl)amino]-5-ethynyl-8-methylpyrido[2,3-d]pyrimidin-7-one], for which the IC50 in experiment [1] is under 1 µM; in experiment [2], 1 to 3 µM; in experiment [3], 0.5 to 1 µM; in experiment [4], under 0.5 µM.
Consider `C#Cc1cc(=O)n(C2CCN(C)C2)c2nc(Nc3ccc(N4CCN(C)CC4)cc3)ncc12` (centres unmarked) [Example 107, 5-ethynyl-2-{[4-(4-methylpiperazin-1-yl)phenyl]amino}-8-(1-methylpyrrolidin-3-yl)pyrido[2,3-d]pyrimidin-7-one], for which the IC50 in experiment [1] was over 10 µM; in experiment [2] it was over 3 µM; in experiment [3], over 3 µM; in experiment [4], 1 to 3 µM.
For the molecule `C#Cc1cc(=O)n(C2CCOCC2)c2nc(Nc3ccc(N4CCN(C)CC4)cc3)ncc12` [Example 69, 5-Ethynyl-2-((4-(4-methylpiperazin-1-yl)phenyl)amino)-8-(tetrahydro-2H-pyran-4-yl)pyrido[2,3-d]pyrimidin-7(8H)-one], the IC50 was under 1 µM in experiment [1], over 3 µM in experiment [2], under 0.5 µM in experiment [3] and 1 to 3 µM in experiment [4].
Taken in the same sequence, the figures for `C#Cc1cc(=O)n([C@H]2CC[C@@H](NC(C)=O)CC2)c2nc(Nc3ccc(N(C)CCN(C)C)cc3)ncc12` [Example 79, N-[(1s,4s)-4-{2-[(4-{[2-(Dimethylamino)ethyl](methyl)amino}phenyl)amino]-5-ethynyl-7-oxopyrido[2,3-d]pyrimidin-8-yl}cyclohexyl]acetamide] were under 1 µM, 1 to 3 µM, under 0.5 µM and under 0.5 µM.
Taken in the same sequence, the figures for `C#Cc1cc(=O)n(C)c2nc(Nc3ccc(N4CCN(C)CC4)c(OCCc4ccnn4C)c3)ncc12` [Example 220, 5-Ethynyl-8-methyl-2-((3-(2-(1-methyl-1H-pyrazol-5-yl)ethoxy)-4-(4-methylpiperazin-1-yl)phenyl)amino)pyrido[2,3-d]pyrimidin-7(8H)-one] were under 1 µM, 1 to 3 µM, under 0.5 µM and under 0.5 µM.
As for `C#Cc1cc(=O)n2c3nc(ncc13)Nc1ccc(N3CCN(CCOC)CC3)c(c1)NC(=O)CCC2` [Example 236, 1^5-Ethynyl-3^4-(4-(2-methoxyethyl)piperazin-1-yl)-1^7,1^8-dihydro-2,4-diaza-1(2,8)-pyrido[2,3-d]pyrimidina-3(1,3)-benzenacyclooctaphane-1^7,5-dione], the half-inhibitory concentration (IC50) is under 1 µM in experiment [1], 1 to 3 µM in experiment [2], under 0.5 µM in experiment [3] and under 0.5 µM in experiment [4].
As to `C#Cc1cc(=O)n(-c2ccccc2)c2nc(Nc3ccc(N(C)C(=O)CCOC)cc3OC)ncc12` [Example 36, N-(4-((5-Ethynyl-7-oxo-8-phenyl-7,8-dihydropyrido[2,3-d]pyrimidin-2-yl)amino)-3-methoxyphenyl)-3-methoxy-N-methylpropanamide], the IC50 in experiment [1] is 1 to 10 µM; in experiment [2], over 3 µM; in experiment [3] it was 1 to 3 µM; in experiment [4] it was 1 to 3 µM.
Take `C#Cc1cc(=O)n(-c2ccccc2)c2nc(Nc3ccc(N4CCC(N5CC(CO)C5)CC4)cc3)ncc12` [Example 28]: the IC50 is under 1 µM in experiment [1], 1 to 3 µM in experiment [2], under 0.5 µM in experiment [3] and under 0.5 µM in experiment [4].
